Experimental data reported in US7728003B2, “5-oxo-5,8-dihydro-pyrido-pyrimidines as inhibitors of c-fms kinase” (Janssen Pharmaceutica N.V., priority 2005, dated 2010).

Molecular target: c-fms (Homo sapiens, UniProt P07333)
Experiment: c-fms autophosphorylation, fluorescence polarization competition immunoassay
Format: biochemical
Conditions: 10 nM c-fms, 1 mM ATP; for IC50: average of three independent measurements; for inhibition at 0.1 µM: test concentration 0.1 μM, read-out: c-fms Autophosphorylation Percent Inhibition, % @ 0.1 μM; for inhibition at 1 µM: test concentration 1 μM, read-out: c-fms Autophosphorylation Percent Inhibition, % @ 1 μM
Procedure: The assay buffer used was 100 mM 4-(2-hydroxyethyl)piperazine 1-ethanesulfonic acid (HEPES), pH 7.5, 1 mM 1,4-dithio-DL-threitol (DTT), 0.01% (v/v) Tween-20. Compounds were diluted in assay buffer containing 4% dimethylsulfoxide (DMSO) just prior to the assay. To each well, 5 μL of compound were added followed by the addition of 3 μL of a mix containing 33 nM c-fms and 16.7 mM MgCl2 (Sigma) in assay buffer. The kinase reaction was initiated by adding 2 μL of 5 mM ATP (Sigma) in assay buffer. The final concentrations in the assay were 10 nM c-fms, 1 mM ATP, 5 mM MgCl2, 2% DMSO. Control reactions were ran in each plate: in positive and negative control wells, assay buffer (made 4% in DMSO) was substituted for the compound; in addition, positive control wells received 1.2 μL of 50 mM ethylenediaminetetraaceticacid (EDTA).
The plates were incubated at room temperature for 45 min. At the end of the incubation, the reaction was quenched with 1.2 μL of 50 mM EDTA (EDTA was not added to the positive control wells at this point; see above). Following a 5-min incubation, each well received 10 μL of a 1:1:3 mixture of anti-phosphotyrosine antibody, 10X, PTK green tracer, 10X (vortexed), FP dilution buffer, respectively (all from PanVera, cat. # P2837). The plate was covered, incubated for 30 min at room temperature and the fluorescence polarization was read on the Analyst. The instrument settings were: 485 nm excitation filter; 530 nm emission filter; Z height: middle of well; G factor: 0.93.
The percent inhibition is shown in Table 1 at the indicated test concentration. The IC50 shown in Table 2 are averages of three independent measurements.

Chain of c-fms (P07333 20-972): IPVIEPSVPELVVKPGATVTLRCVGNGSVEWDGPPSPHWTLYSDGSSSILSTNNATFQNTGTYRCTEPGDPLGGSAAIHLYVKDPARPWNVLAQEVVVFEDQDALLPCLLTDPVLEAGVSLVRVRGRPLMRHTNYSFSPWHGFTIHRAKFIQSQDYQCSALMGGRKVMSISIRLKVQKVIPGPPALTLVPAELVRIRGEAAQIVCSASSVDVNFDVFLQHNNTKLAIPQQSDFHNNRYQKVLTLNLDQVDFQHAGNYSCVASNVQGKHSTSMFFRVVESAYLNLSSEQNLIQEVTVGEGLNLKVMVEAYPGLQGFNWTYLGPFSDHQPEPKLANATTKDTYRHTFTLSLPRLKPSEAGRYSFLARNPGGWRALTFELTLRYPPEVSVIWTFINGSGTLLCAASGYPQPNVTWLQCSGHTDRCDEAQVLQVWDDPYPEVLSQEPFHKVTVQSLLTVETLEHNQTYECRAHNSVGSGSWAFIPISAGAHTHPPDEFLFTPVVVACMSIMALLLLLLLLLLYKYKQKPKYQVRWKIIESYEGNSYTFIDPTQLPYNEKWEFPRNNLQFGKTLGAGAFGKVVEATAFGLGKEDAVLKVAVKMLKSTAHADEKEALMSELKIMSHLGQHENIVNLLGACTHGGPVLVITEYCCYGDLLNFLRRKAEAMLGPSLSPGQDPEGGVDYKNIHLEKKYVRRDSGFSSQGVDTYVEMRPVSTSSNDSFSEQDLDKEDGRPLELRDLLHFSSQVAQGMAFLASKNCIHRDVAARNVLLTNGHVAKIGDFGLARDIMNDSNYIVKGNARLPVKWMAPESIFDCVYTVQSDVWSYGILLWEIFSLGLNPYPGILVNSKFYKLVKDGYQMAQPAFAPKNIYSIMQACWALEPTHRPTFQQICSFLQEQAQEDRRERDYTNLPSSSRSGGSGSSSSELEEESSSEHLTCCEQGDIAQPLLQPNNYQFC

Structure (SMILES)	IC50 [µM]	inhibition at 0.1 µM [%]	inhibition at 1 µM [%]
CN(C)CCCNc1ncc2c(=O)c(C(N)=O)cn(-c3ccc4c(c3)CCC4)c2n1 [Cpd 6, 2-(3-Dimethylamino-propylamino)-8-indan-5-yl-5-oxo-5,8-dihydro-pyrido[2,3-d]pyrimidine-6-carboxylic acid amide]	7.1	–	–
CONC(=O)c1cn(C2CCCCC2)c2nc(NCCN3CCCCC3)ncc2c1=O [Cpd 50, 8-Cyclohexyl-5-oxo-2-(2-piperidin-1-yl-ethylamino)-5,8-dihydro-pyrido[2,3-d]pyrimidine-6-carboxylic acid methoxy-amide]	–	3	20
CNC(=O)c1cn(-c2ccc3c(c2)CCC3)c2nc(NCCCN3CCOCC3)ncc2c1=O [Cpd 13, 8-Indan-5-yl-2-(3-morpholin-4-yl-propylamino)-5-oxo-5,8-dihydro-pyrido[2,3-d]pyrimidine-6-carboxylic acid methylamide]	–	7	27
NC(=O)c1cn(-c2ccc3c(c2)CCC3)c2nc(NCCCn3ccnc3)ncc2c1=O [Cpd 3, 2-(3-Imidazol-1-yl-propylamino)-8-indan-5-yl-5-oxo-5,8-dihydro-pyrido[2,3-d]pyrimidine-6-carboxylic acid amide]	2.3	–	–
NC(=O)c1cn(-c2ccc3c(c2)CCC3)c2nc(NCCN3CCCCC3)ncc2c1=O [Cpd 2, 8-Indan-5-yl-5-oxo-2-(2-piperidin-1-yl-ethylamino)-5,8-dihydro-pyrido[2,3-d]pyrimidine-6-carboxylic acid amide]	–	15	20
CONC(=O)c1cn(C2CCCCC2)c2nc(NCCN3CCOCC3)ncc2c1=O [Cpd 51, 8-Cyclohexyl-2-(2-morpholin-4-yl-ethylamino)-5-oxo-5,8-dihydro-pyrido[2,3-d]pyrimidine-6-carboxylic acid methoxy-amide]	–	17	44
CNC(=O)c1cn(-c2ccc3c(c2)CCC3)c2nc(NCCCN3CCN(C)CC3)ncc2c1=O [Cpd 15, 8-Indan-5-yl-2-[3-(4-methyl-piperazin-1-yl)-propylamino]-5-oxo-5,8-dihydro-pyrido[2,3-d]pyrimidine-6-carboxylic acid methylamide]	–	8	29
CN1CCN(CCCNc2ncc3c(=O)c(C(N)=O)cn(C4CCCCC4)c3n2)CC1 [Cpd 33, 8-Cyclohexyl-2-[3-(4-methyl-piperazin-1-yl)-propylamino]-5-oxo-5,8-dihydro-pyrido[2,3-d]pyrimidine-6-carboxylic acid amide]	–	31	70
COCCCNc1ncc2c(=O)c(C(N)=O)cn(C3CCCCC3)c2n1 [Cpd 31, 8-Cyclohexyl-2-(3-methoxy-propylamino)-5-oxo-5,8-dihydro-pyrido[2,3-d]pyrimidine-6-carboxylic acid amide]	–	25	62
CONC(=O)c1cn(-c2ccc3c(c2)CCC3)c2nc(NCCCN(C)C)ncc2c1=O [Cpd 20, 2-(3-Dimethylamino-propylamino)-8-indan-5-yl-5-oxo-5,8-dihydro-pyrido[2,3-d]pyrimidine-6-carboxylic acid methoxy-amide]	–	20	52
COCCCNc1ncc2c(=O)c(C(N)=O)cn(-c3ccc4c(c3)CCC4)c2n1 [Cpd 7, 8-Indan-5-yl-2-(3-methoxy-propylamino)-5-oxo-5,8-dihydro-pyrido[2,3-d]pyrimidine-6-carboxylic acid amide]	–	17	43
CONC(=O)c1cn(C2CCCCC2)c2nc(NCCCn3ccnc3)ncc2c1=O [Cpd 41, 8-Cyclohexyl-2-(3-imidazol-1-yl-propylamino)-5-oxo-5,8-dihydro-pyrido[2,3-d]pyrimidine-6-carboxylic acid methoxy-amide]	–	22	45
COc1cc(CNc2ncc3c(=O)c(C(N)=O)cn(-c4ccc5c(c4)CCC5)c3n2)cc(OC)c1 [Cpd 11, 2-(3,5-Dimethoxy-benzylamino)-8-indan-5-yl-5-oxo-5,8-dihydro-pyrido[2,3-d]pyrimidine-6-carboxylic acid amide]	–	0	50
COCCCNc1ncc2c(=O)c(C(=O)NOC)cn(C3CCCCC3)c2n1 [Cpd 44, 8-Cyclohexyl-2-(3-methoxy-propylamino)-5-oxo-5,8-dihydro-pyrido[2,3-d]pyrimidine-6-carboxylic acid methoxy-amide]	–	26	62
CONC(=O)c1cn(C2CCCCC2)c2nc(NCCCN3CCOCC3)ncc2c1=O [Cpd 43, 8-Cyclohexyl-2-(3-morpholin-4-yl-propylamino)-5-oxo-5,8-dihydro-pyrido[2,3-d]pyrimidine-6-carboxylic acid methoxy-amide]	–	32	60

Continued, values first:

IC50 [µM]	inhibition at 0.1 µM [%]	inhibition at 1 µM [%]	Structure (SMILES)
–	12	35	CNC(=O)c1cn(-c2ccc3c(c2)CCC3)c2nc(NCCN3CCOCC3)ncc2c1=O [Cpd 18, 8-Indan-5-yl-2-(2-morpholin-4-yl-ethylamino)-5-oxo-5,8-dihydro-pyrido[2,3-d]pyrimidine-6-carboxylic acid methylamide]
–	15	46	NC(=O)c1cn(-c2ccc3c(c2)CCC3)c2nc(NCCCN3CCCC3=O)ncc2c1=O [Cpd 8, 8-Indan-5-yl-5-oxo-2-[3-(2-oxo-pyrrolidin-1-yl)-propylamino]-5,8-dihydro-pyrido[2,3-d]pyrimidine-6-carboxylic acid amide]
–	31	64	NC(=O)c1cn(C2CCCCC2)c2nc(NCCCN3CCCC3)ncc2c1=O [Cpd 34, 8-Cyclohexyl-5-oxo-2-(3-pyrrolidin-1-yl-propylamino)-5,8-dihydro-pyrido[2,3-d]pyrimidine-6-carboxylic acid amide]
–	16	45	NC(=O)c1cn(-c2ccc3c(c2)CCC3)c2nc(NCCCN3CCCC3)ncc2c1=O [Cpd 9, 8-Indan-5-yl-5-oxo-2-(3-pyrrolidin-1-yl-propylamino)-5,8-dihydro-pyrido[2,3-d]pyrimidine-6-carboxylic acid amide]
–	52	59	CONC(=O)c1cn(-c2ccc3c(c2)CCC3)c2nc(NCCc3ccc(OC)cc3)ncc2c1=O [Cpd 24, 8-Indan-5-yl-2-[2-(4-methoxy-phenyl)-ethylamino]-5-oxo-5,8-dihydro-pyrido[2,3-d]pyrimidine-6-carboxylic acid methoxy-amide]
–	25	54	CONC(=O)c1cn(-c2ccc3c(c2)CCC3)c2nc(NCCN3CCOCC3)ncc2c1=O [Cpd 26, 8-Indan-5-yl-2-(2-morpholin-4-yl-ethylamino)-5-oxo-5,8-dihydro-pyrido[2,3-d]pyrimidine-6-carboxylic acid methoxy-amide]
–	36	70	CONC(=O)c1cn(-c2ccc3c(c2)CCC3)c2nc(NCCCn3ccnc3)ncc2c1=O [Cpd 19, 2-(3-Imidazol-1-yl-propylamino)-8-indan-5-yl-5-oxo-5,8-dihydro-pyrido[2,3-d]pyrimidine-6-carboxylic acid methoxy-amide]
